Measurements as given in the kinase profiling compilation of Christmann-Franck et al. (2016).
Each block holds one compound with its values, some of them ahead of it.

Columns and labels:
Assay in all cases: radiometric filter-binding kinase assay
STK33 (human) = STK33 (human) (UniProt Q9BYT3)
TTBK1 (human) = TTBK1 (human) (UniProt Q5TCY1)
PRKCG (human) = PRKCG (human) (UniProt P05129)
DDR2 (human) = DDR2 (human) (UniProt Q16832)
STK16 (human) = STK16 (human) (UniProt O75716)
TESK1 (human) = TESK1 (human) (UniProt Q15569)
SIK2 (human) = SIK2 (human) (UniProt Q9H0K1)
PTK6 (human) = PTK6 (human) (UniProt Q13882)
[1] = system: OXSR1 (human), O95747 [T185E]
MAP4K5 (human) = MAP4K5 (human) (UniProt Q9Y4K4)
MYLK (human) = MYLK (human) (UniProt Q15746)
TLK1 (human) = TLK1 (human) (UniProt Q9UKI8)
ULK2 (human) = ULK2 (human) (UniProt Q8IYT8)
CDK9 CCNT1 (human) = CDK9 CCNT1 (human) (UniProt P50750+O60563)
[2] = system: TGFBR1 (human), P36897 [T204D]
ABL1 (human) = ABL1 (human) (UniProt P00519)
WNK1 (human) = WNK1 (human) (UniProt Q9H4A3)
STK24 (human) = STK24 (human) (UniProt Q9Y6E0)
MAP4K3 (human) = MAP4K3 (human) (UniProt Q8IVH8)
SIK3 (human) = SIK3 (human) (UniProt Q9Y2K2)
TEK (human) = TEK (human) (UniProt Q02763)
[3] = target: PRKAA1 PRKAB2 PRKAG1 (human) (UniProt O43741+Q13131+P54619)
ULK1 (human) = ULK1 (human) (UniProt O75385)
TSSK1B (human) = TSSK1B (human) (UniProt Q9BXA7)
CSNK1G2 (human) = CSNK1G2 (human) (UniProt P78368)
ZAP70 (human) = ZAP70 (human) (UniProt P43403)
TTBK2 (human) = TTBK2 (human) (UniProt Q6IQ55)
IRAK1 (human) = IRAK1 (human) (UniProt P51617)
EIF2AK3 (human) = EIF2AK3 (human) (UniProt Q9NZJ5)
MAPK7 (human) = MAPK7 (human) (UniProt Q13164)
PDGFRA (human) = PDGFRA (human) (UniProt P16234)

Sequence of STK24 (human) (Q9Y6E0 whole entry, looked up): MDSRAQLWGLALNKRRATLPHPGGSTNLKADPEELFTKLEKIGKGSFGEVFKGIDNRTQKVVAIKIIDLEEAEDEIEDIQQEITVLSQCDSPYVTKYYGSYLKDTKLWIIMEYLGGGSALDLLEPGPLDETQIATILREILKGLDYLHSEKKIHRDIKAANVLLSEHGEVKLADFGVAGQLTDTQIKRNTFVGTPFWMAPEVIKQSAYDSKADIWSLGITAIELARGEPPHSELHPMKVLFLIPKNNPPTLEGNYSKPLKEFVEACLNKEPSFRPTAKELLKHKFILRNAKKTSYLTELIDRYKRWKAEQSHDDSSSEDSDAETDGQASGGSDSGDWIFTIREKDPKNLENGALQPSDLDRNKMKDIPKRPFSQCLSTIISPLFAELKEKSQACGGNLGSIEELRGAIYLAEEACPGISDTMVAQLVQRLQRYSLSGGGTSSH
Sequence of MYLK (human) (Q15746 whole entry, looked up): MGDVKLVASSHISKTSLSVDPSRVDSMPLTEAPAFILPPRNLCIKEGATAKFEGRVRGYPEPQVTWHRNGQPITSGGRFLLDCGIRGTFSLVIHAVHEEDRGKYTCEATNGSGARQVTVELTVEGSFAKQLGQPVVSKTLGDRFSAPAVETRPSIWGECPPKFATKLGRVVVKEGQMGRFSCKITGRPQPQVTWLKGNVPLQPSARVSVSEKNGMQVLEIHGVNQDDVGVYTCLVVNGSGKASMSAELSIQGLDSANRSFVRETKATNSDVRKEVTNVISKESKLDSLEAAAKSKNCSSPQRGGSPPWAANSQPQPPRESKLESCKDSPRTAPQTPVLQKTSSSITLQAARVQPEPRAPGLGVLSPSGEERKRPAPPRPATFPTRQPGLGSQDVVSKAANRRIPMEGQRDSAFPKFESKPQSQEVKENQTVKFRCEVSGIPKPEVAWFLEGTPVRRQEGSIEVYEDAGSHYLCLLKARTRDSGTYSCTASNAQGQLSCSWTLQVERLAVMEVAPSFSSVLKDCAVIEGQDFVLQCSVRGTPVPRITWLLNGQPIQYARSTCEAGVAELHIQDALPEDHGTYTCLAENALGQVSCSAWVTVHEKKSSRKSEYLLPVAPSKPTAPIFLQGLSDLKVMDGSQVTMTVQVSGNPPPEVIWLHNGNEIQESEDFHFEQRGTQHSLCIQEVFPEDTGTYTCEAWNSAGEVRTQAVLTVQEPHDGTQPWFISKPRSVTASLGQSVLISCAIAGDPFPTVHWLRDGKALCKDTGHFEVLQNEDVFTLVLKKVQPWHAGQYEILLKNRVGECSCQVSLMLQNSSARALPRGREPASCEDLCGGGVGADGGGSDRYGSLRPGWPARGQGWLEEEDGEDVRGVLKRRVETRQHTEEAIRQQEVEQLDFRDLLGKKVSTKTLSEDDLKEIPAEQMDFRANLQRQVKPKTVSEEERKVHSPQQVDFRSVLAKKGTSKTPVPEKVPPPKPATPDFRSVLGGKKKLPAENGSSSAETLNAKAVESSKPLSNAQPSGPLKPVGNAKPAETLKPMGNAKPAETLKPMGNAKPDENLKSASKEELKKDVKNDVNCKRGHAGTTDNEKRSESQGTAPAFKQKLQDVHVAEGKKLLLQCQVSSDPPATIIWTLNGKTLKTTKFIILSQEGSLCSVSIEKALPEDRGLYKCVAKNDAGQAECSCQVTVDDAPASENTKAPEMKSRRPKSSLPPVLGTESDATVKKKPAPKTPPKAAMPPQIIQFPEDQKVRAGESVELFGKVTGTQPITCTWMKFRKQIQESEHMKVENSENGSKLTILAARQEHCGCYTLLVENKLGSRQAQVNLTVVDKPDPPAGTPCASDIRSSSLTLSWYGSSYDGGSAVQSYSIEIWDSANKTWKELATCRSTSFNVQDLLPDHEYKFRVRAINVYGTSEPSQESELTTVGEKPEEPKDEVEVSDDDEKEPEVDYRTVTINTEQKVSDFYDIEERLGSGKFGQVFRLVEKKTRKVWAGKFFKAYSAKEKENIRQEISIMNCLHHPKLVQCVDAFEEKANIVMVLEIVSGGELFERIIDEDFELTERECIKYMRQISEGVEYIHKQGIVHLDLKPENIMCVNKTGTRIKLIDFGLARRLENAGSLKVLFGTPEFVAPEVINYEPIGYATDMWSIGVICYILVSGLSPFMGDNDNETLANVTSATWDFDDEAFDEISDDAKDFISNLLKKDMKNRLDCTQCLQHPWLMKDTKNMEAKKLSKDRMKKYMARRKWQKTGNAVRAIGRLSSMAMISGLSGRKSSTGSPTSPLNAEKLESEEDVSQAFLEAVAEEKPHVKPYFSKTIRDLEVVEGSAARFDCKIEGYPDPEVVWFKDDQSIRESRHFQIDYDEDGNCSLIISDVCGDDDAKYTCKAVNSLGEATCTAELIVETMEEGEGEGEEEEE
Sequence of TSSK1B (human) (Q9BXA7 whole entry, looked up): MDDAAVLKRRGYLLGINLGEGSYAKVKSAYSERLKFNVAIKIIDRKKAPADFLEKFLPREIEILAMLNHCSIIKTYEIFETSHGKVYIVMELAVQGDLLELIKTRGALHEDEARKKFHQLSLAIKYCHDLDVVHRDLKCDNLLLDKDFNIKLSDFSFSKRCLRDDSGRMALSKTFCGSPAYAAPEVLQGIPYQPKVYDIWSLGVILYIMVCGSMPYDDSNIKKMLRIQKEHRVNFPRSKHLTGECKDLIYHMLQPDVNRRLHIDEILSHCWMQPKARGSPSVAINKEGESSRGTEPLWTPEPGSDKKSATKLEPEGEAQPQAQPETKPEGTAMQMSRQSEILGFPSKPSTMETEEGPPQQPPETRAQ
Sequence of STK16 (human) (O75716 whole entry, looked up): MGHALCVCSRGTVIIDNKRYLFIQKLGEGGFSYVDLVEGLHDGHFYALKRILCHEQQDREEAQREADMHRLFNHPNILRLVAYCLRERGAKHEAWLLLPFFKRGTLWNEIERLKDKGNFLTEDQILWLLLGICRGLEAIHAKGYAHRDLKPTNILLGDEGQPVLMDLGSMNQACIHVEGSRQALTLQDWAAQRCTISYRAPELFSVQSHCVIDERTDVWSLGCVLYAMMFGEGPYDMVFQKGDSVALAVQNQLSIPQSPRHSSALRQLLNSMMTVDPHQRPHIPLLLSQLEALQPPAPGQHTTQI
Sequence of SIK2 (human) (Q9H0K1 whole entry, looked up): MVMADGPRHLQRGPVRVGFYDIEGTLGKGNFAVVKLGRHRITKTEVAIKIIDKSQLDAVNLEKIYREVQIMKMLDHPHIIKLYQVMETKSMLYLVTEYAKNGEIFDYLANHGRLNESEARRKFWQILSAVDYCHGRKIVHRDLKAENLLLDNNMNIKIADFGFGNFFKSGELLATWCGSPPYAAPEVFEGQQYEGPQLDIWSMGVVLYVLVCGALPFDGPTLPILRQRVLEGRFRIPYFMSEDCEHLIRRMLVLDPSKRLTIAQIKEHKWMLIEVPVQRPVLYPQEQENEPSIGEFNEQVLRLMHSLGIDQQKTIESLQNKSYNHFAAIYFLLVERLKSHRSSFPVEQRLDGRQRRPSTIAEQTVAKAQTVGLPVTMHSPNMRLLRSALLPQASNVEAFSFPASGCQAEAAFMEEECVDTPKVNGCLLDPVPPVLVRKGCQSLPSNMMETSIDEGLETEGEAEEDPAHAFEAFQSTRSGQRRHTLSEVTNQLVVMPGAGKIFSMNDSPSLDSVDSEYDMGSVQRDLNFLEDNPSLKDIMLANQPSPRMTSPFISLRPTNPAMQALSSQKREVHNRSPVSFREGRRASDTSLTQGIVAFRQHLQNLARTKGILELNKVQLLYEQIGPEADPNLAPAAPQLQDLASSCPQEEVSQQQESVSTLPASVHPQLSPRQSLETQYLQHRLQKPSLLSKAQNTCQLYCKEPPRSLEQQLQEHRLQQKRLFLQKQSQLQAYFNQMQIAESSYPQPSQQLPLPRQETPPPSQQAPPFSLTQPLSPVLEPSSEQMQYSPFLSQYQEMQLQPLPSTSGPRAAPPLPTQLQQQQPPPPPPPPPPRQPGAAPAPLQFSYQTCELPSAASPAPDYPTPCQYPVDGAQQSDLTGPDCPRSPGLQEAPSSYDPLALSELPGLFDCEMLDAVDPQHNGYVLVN
Sequence of CSNK1G2 (human) (P78368 whole entry, looked up): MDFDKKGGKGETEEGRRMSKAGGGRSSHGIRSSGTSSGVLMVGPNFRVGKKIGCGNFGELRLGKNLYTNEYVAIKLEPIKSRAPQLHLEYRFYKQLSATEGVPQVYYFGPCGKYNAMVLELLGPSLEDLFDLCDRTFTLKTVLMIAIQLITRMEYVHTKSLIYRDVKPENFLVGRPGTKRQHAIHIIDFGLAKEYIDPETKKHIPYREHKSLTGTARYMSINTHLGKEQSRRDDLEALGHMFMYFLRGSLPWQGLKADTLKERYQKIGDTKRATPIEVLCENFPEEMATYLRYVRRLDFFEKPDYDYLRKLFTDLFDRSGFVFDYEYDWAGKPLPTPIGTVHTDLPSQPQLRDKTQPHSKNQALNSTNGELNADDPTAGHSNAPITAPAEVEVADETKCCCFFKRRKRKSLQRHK

residual activity (STK33 (human); compound 0.1 µM): 104%
residual activity (STK33 (human); compound 1.0 µM): 106%
residual activity (STK33 (human); compound 10.0 µM): 74%
residual activity (TTBK1 (human); compound 0.1 µM): 104%
residual activity (TTBK1 (human); compound 1.0 µM): 100%
residual activity (TTBK1 (human); compound 10.0 µM): 91%
residual activity (PRKCG (human); compound 0.1 µM): 96%
residual activity (PRKCG (human); compound 1.0 µM): 80%
residual activity (PRKCG (human); compound 10.0 µM): 46%
residual activity (DDR2 (human); compound 0.1 µM): 108%
residual activity (DDR2 (human); compound 1.0 µM): 97%
residual activity (DDR2 (human); compound 10.0 µM): 104%
residual activity (STK16 (human); compound 1.0 µM): 103%
residual activity (STK16 (human); compound 10.0 µM): 83%
residual activity (TESK1 (human); compound 0.1 µM): 103%
residual activity (TESK1 (human); compound 1.0 µM): 114%
residual activity (TESK1 (human); compound 10.0 µM): 104%
residual activity (SIK2 (human); compound 0.1 µM): 97%
residual activity (SIK2 (human); compound 1.0 µM): 93%
residual activity (SIK2 (human); compound 10.0 µM): 95%
residual activity (PTK6 (human); compound 0.1 µM): 91%
residual activity (PTK6 (human); compound 10.0 µM): 91%
residual activity ([1]; compound 0.1 µM): 107%
residual activity ([1]; compound 1.0 µM): 102%
residual activity ([1]; compound 10.0 µM): 97%
residual activity (MAP4K5 (human); compound 0.1 µM): 107%
residual activity (MAP4K5 (human); compound 1.0 µM): 103%
residual activity (MAP4K5 (human); compound 10.0 µM): 84%
residual activity (MYLK (human); compound 0.1 µM): 104%
residual activity (MYLK (human); compound 1.0 µM): 110%
residual activity (MYLK (human); compound 10.0 µM): 70%
residual activity (TLK1 (human); compound 0.1 µM): 92%
residual activity (TLK1 (human); compound 1.0 µM): 92%
residual activity (TLK1 (human); compound 10.0 µM): 88%
residual activity (ULK2 (human); compound 0.1 µM): 93%
residual activity (ULK2 (human); compound 1.0 µM): 98%
residual activity (ULK2 (human); compound 10.0 µM): 73%
residual activity (CDK9 CCNT1 (human); compound 0.1 µM): 103%
residual activity (CDK9 CCNT1 (human); compound 1.0 µM): 115%
residual activity (CDK9 CCNT1 (human); compound 10.0 µM): 103%
residual activity ([2]; compound 0.1 µM): 85%
residual activity ([2]; compound 1.0 µM): 90%
residual activity ([2]; compound 10.0 µM): 92%
residual activity (ABL1 (human); compound 0.1 µM): 102%
residual activity (ABL1 (human); compound 1.0 µM): 109%
residual activity (ABL1 (human); compound 10.0 µM): 96%
residual activity (WNK1 (human); compound 0.1 µM): 106%
residual activity (WNK1 (human); compound 1.0 µM): 102%
residual activity (WNK1 (human); compound 10.0 µM): 100%
residual activity (STK24 (human); compound 0.1 µM): 86%
residual activity (STK24 (human); compound 1.0 µM): 91%
residual activity (STK24 (human); compound 10.0 µM): 73%
residual activity (MAP4K3 (human); compound 0.1 µM): 99%
residual activity (MAP4K3 (human); compound 10.0 µM): 66%
residual activity (SIK3 (human); compound 0.1 µM): 89%
residual activity (SIK3 (human); compound 1.0 µM): 94%
residual activity (SIK3 (human); compound 10.0 µM): 89%
residual activity (TEK (human); compound 1.0 µM): 116%
residual activity (TEK (human); compound 10.0 µM): 111%
residual activity ([3]; compound 0.1 µM): 115%
residual activity ([3]; compound 1.0 µM): 78%
residual activity ([3]; compound 10.0 µM): 34%
residual activity (ULK1 (human); compound 0.1 µM): 83%
residual activity (ULK1 (human); compound 1.0 µM): 74%
residual activity (ULK1 (human); compound 10.0 µM): 43%
residual activity (TSSK1B (human); compound 0.1 µM): 88%
residual activity (TSSK1B (human); compound 10.0 µM): 42%
residual activity (CSNK1G2 (human); compound 0.1 µM): 101%
residual activity (CSNK1G2 (human); compound 1.0 µM): 92%
residual activity (CSNK1G2 (human); compound 10.0 µM): 92%
residual activity (ZAP70 (human); compound 0.1 µM): 83%
residual activity (ZAP70 (human); compound 1.0 µM): 84%
residual activity (ZAP70 (human); compound 10.0 µM): 84%
residual activity (TTBK2 (human); compound 0.1 µM): 91%
residual activity (TTBK2 (human); compound 1.0 µM): 95%
residual activity (TTBK2 (human); compound 10.0 µM): 101%
residual activity (IRAK1 (human); compound 0.1 µM): 99%
residual activity (IRAK1 (human); compound 1.0 µM): 103%
residual activity (IRAK1 (human); compound 10.0 µM): 75%
residual activity (EIF2AK3 (human); compound 0.1 µM): 93%
residual activity (EIF2AK3 (human); compound 1.0 µM): 105%
residual activity (EIF2AK3 (human); compound 10.0 µM): 94%
residual activity (MAPK7 (human); compound 0.1 µM): 96%
residual activity (MAPK7 (human); compound 1.0 µM): 83%
residual activity (MAPK7 (human); compound 10.0 µM): 64%
residual activity (PDGFRA (human); compound 0.1 µM): 120%
residual activity (PDGFRA (human); compound 1.0 µM): 101%
residual activity (PDGFRA (human); compound 10.0 µM): 99%
Compound: CCn1c(-c2nonc2N)nc2cncc(CNC3CCNCC3)c21

residual activity (STK33 (human); compound 1.0 µM): 47%
residual activity (STK33 (human); compound 10.0 µM): 30%
residual activity (TTBK1 (human); compound 1.0 µM): 96%
residual activity (TTBK1 (human); compound 10.0 µM): 93%
residual activity (DDR2 (human); compound 1.0 µM): 105%
residual activity (DDR2 (human); compound 10.0 µM): 100%
residual activity (STK16 (human); compound 1.0 µM): 115%
residual activity (STK16 (human); compound 10.0 µM): 101%
residual activity (TESK1 (human); compound 1.0 µM): 102%
residual activity (TESK1 (human); compound 10.0 µM): 118%
residual activity (SIK2 (human); compound 1.0 µM): 84%
residual activity (SIK2 (human); compound 10.0 µM): 34%
residual activity (PTK6 (human); compound 1.0 µM): 53%
residual activity (PTK6 (human); compound 10.0 µM): 22%
residual activity ([1]; compound 1.0 µM): 95%
residual activity ([1]; compound 10.0 µM): 51%
residual activity (MAP4K5 (human); compound 1.0 µM): 107%
residual activity (MAP4K5 (human); compound 10.0 µM): 91%
residual activity (MYLK (human); compound 1.0 µM): 44%
residual activity (MYLK (human); compound 10.0 µM): 8%
residual activity (TLK1 (human); compound 1.0 µM): 106%
residual activity (TLK1 (human); compound 10.0 µM): 96%
residual activity (ULK2 (human); compound 1.0 µM): 88%
residual activity (ULK2 (human); compound 10.0 µM): 70%
residual activity (CDK9 CCNT1 (human); compound 1.0 µM): 87%
residual activity (CDK9 CCNT1 (human); compound 10.0 µM): 90%
residual activity ([2]; compound 1.0 µM): 99%
residual activity ([2]; compound 10.0 µM): 103%
residual activity (ABL1 (human); compound 1.0 µM): 106%
residual activity (ABL1 (human); compound 10.0 µM): 97%
residual activity (WNK1 (human); compound 1.0 µM): 97%
residual activity (WNK1 (human); compound 10.0 µM): 106%
residual activity (STK24 (human); compound 1.0 µM): 96%
residual activity (STK24 (human); compound 10.0 µM): 85%
residual activity (MAP4K3 (human); compound 1.0 µM): 76%
residual activity (MAP4K3 (human); compound 10.0 µM): 36%
residual activity (SIK3 (human); compound 1.0 µM): 95%
residual activity (SIK3 (human); compound 10.0 µM): 93%
residual activity (TEK (human); compound 1.0 µM): 85%
residual activity (TEK (human); compound 10.0 µM): 91%
residual activity ([3]; compound 1.0 µM): 82%
residual activity ([3]; compound 10.0 µM): 44%
residual activity (ULK1 (human); compound 1.0 µM): 98%
residual activity (ULK1 (human); compound 10.0 µM): 56%
residual activity (TSSK1B (human); compound 1.0 µM): 31%
residual activity (TSSK1B (human); compound 10.0 µM): 7%
residual activity (CSNK1G2 (human); compound 1.0 µM): 90%
residual activity (CSNK1G2 (human); compound 10.0 µM): 89%
residual activity (ZAP70 (human); compound 1.0 µM): 88%
residual activity (ZAP70 (human); compound 10.0 µM): 86%
residual activity (TTBK2 (human); compound 1.0 µM): 91%
residual activity (TTBK2 (human); compound 10.0 µM): 97%
residual activity (IRAK1 (human); compound 1.0 µM): 98%
residual activity (IRAK1 (human); compound 10.0 µM): 94%
residual activity (EIF2AK3 (human); compound 1.0 µM): 87%
residual activity (EIF2AK3 (human); compound 10.0 µM): 82%
residual activity (MAPK7 (human); compound 1.0 µM): 66%
residual activity (MAPK7 (human); compound 10.0 µM): 42%
residual activity (PDGFRA (human); compound 1.0 µM): 81%
residual activity (PDGFRA (human); compound 10.0 µM): 76%
Compound: COc1cc(C(=O)N2CCOCC2)c(F)cc1Nc1ncc(C(F)(F)F)c(NC2CC2)n1
